The assay concerns the target T1, hTAAR5 (Homo sapiens, UniProt O14804).
T1 construct: gene TAAR5; full length; N-terminal HA tag (YPYDVPDYA) and first 21 residues of bovine rhodopsin (Rho-tag) kept; vector pcDps; transient in HEK293 cells
T1 sequence (O14804 1-337): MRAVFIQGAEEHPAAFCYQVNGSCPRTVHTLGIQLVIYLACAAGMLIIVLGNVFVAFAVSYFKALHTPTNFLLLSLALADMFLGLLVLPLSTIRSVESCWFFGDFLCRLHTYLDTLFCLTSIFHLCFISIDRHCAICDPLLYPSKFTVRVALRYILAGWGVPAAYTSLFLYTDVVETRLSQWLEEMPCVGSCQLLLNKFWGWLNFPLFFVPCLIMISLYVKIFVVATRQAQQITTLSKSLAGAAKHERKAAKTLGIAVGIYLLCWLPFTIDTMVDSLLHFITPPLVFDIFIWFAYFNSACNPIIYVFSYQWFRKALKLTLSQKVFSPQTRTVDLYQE
In words: NFAT-RE luciferase reporter (IP3-luc), HEK293. The conditions noted are these: inverse agonist; reduction of basal Gq/11 (IP3) signaling; 6 h, 37 °C; 1 nM to 100 μM. The class given is cell-based.

The EC50 is the concentration that produces a half-maximal response. The low end stands for an effect from little substance, the high end for a need for much substance.

As for `NCCc1ccc(Oc2ccc(O)cc2)c(I)c1` [3-T1AM], the EC50 turned out to be 4.4 ± 0.9 µM.

The values are drawn from PMC4382497, “Inverse Agonistic Action of 3-Iodothyronamine at the Human Trace Amine-Associated Receptor 5” (PLoS ONE, 2015).
